Reference: US8193195B2, “Polymorphic forms of 1-'4-(5-cyanoindol-3-yl) butyl-4-(2-carbamoylbenzofuran-5-yl) piperazine hydrochloride” (Merck Patentgesellschaft, priority 2001, dated 2012)
Where two headings read alike, the source gives them in different places.

Legend:
[1] = Solubility via potentiometric titration (pSOL solubility profiler); assay type: physicochemical; conditions: for Solubility data: hydrochloride; for solubility: water, thermodynamic from solid
Method: Solubility data of Forms II, III, IV, V, VI and VIII are measured according to Alex Avdeef et al, Pharm. Pharmacol. Commun.
The pSOLTM solubility profiler, automatically collects potentiometric data, calculates the pH-solubility profiles, and prints the values at 0.1 pH unit intervals. Intrinsic solubilities in the milli-, micro- and nanogram levels can be determined. Also presented are two new concepts, the Flux Factor Profile and Dose Limit Profile. Both concepts follow the guidelines consistent with the BioPharmaceutics Classification Scheme.

[2] = Thermodynamic stability of the forms, energy/temperature diagram (FIG. 27); assay type: physicochemical
Description: FIG. 27 is an energy/temperature diagram of Forms III, IV and VII

Cl.N#Cc1ccc2[nH]cc(CCCCN3CCN(c4ccc5oc(C(N)=O)cc5c4)CC3)c2c1 [Form III, 1-[4-(5-cyanoindol-3-yl)butyl]-4-(2-carbamoyl-benzofuran-5-yl)-piperazine hydrochloride]
Solubility data ([1]; potentiometric titration according to Avdeef et al., listed as III): 0.12 µg/mL
relative (thermodynamic) stability of the form at room temperature ([2]; room temperature): the most stable form at room temperature

Cl.N#Cc1ccc2[nH]cc(CCCCN3CCN(c4ccc5oc(C(N)=O)cc5c4)CC3)c2c1 [Form IV, 1-[4-(5-cyanoindol-3-yl)butyl]-4-(2-carbamoyl-benzofuran-5-yl)-piperazine hydrochloride]
Solubility data ([1]; potentiometric titration according to Avdeef et al., listed as IV): 0.33 µg/mL
solubility ([1]; in water, read-out: solubility in water): 0.328 µg/mL
relative stability of the form at higher temperatures ([2]; higher temperatures, e.g. >100° C.): the most stable form at higher temperatures

Cl.N#Cc1ccc2[nH]cc(CCCCN3CCN(c4ccc5oc(C(N)=O)cc5c4)CC3)c2c1 [Form I, 1-[4-(5-cyanoindol-3-yl)butyl]-4-(2-carbamoyl-benzofuran-5-yl)-piperazine hydrochloride]
Solubility data ([1]; potentiometric titration according to Avdeef et al., listed as I): 0.08 µg/mL

Cl.N#Cc1ccc2[nH]cc(CCCCN3CCN(c4ccc5oc(C(N)=O)cc5c4)CC3)c2c1 [Form VI, 1-[4-(5-cyanoindol-3-yl)butyl]-4-(2-carbamoyl-benzofuran-5-yl)-piperazine hydrochloride]
Solubility data ([1]; potentiometric titration according to Avdeef et al., listed as VI): 0.23 µg/mL

Cl.N#Cc1ccc2[nH]cc(CCCCN3CCN(c4ccc5oc(C(N)=O)cc5c4)CC3)c2c1 [Form II, 1-[4-(5-cyanoindol-3-yl)butyl]-4-(2-carbamoyl-benzofuran-5-yl)-piperazine hydrochloride]
Solubility data ([1]; potentiometric titration according to Avdeef et al., listed as II): 0.03 µg/mL

Cl.N#Cc1ccc2[nH]cc(CCCCN3CCN(c4ccc5oc(C(N)=O)cc5c4)CC3)c2c1.O [Form V, 1-[4-(5-cyanoindol-3-yl)butyl]-4-(2-carbamoyl-benzofuran-5-yl)-piperazine hydrochloride monohydrate]
solubility ([1]; potentiometric titration according to Avdeef et al., read-out: Solubility data): 0.18 µg/mL
